What was measured:
[1] = log P determination by HPLC (EEC directive 79/831 Annex V.A8); assay type: physicochemical; settings: pH 2.3; HPLC gradient method, acetonitrile/0.1% aqueous phosphoric acid
Protocol: [The log P values were determined in accordance with EEC directive 79/831 Annex V.A8 by HPLC (gradient method, acetonitrile/0.1% aqueous phosphoric acid)]

[2] = test system: Meloidogyne incognita; assay: Meloidogyne test; assay type: in vivo; settings: 20 ppm, after 2 weeks, lettuce in sand
Protocol: To produce a suitable preparation of active compound, 1 part by weight of active compound is mixed with the stated amounts of solvent and emulsifier, and the concentrate is diluted with water to the desired concentration.
Containers are filled with sand, solution of active compound, Meloidogyne incognita egg/larvae suspension and lettuce seeds. The lettuce seeds germinate and the plants develop. Galls form on the roots.
After 2 weeks, the nematicidal activity is determined by the gall formation in %. 100% means that no galls have been found; 0% activity means that the number of galls on the treated plants corresponds to that of the untreated control.

C/C(=N\C#N)NC(C)C1CCCCC1 (stereo not drawn) [Example 1, R-(−)-N-cyano-N′-cyclohexyl-eth-1-yl-ethane-imid-amide]
chromatographic logP [1]: 2.19 | kill (nematicidal activity by gall formation) [2]: 100%

— patent publication US6806292B2, “Substituted imide derivatives” (Bayer Aktiengesellschaft, priority 2000, dated 2004)
